Data reported in PubChem BioAssay AID1259407 (Chemical Carcinogenesis Research Information System (CCRIS), 2018).
The source made the active and inactive calls. The rule behind the calls is not given here.

Test system: CCRIS mutagenicity, Ames/micronucleus/aberration tests
Test: CCRIS mutagenicity studies
[1] = Test System: AMES SALMONELLA TYPHIMURIUM, Strain/Indicator: TA98, Metabolic Activation: NONE, Method: PREINCUBATION
[2] = Test System: AMES SALMONELLA TYPHIMURIUM, Strain/Indicator: TA100, Metabolic Activation: NONE, Method: PREINCUBATION
[3] = Test System: AMES SALMONELLA TYPHIMURIUM, Strain/Indicator: TA102, Metabolic Activation: NONE, Method: PREINCUBATION
[4] = Test System: AMES SALMONELLA TYPHIMURIUM, Strain/Indicator: TA98, Metabolic Activation: NONE, Method: STANDARD PLATE

Measured: mutagenic call

N[C@@H](CSCc1ccccc1)C(=O)O
inactive: [1] inactive; negative | Test System: AMES SALMONELLA TYPHIMURIUM, Strain/Indicator: TA98, Metabolic Activation: RAT, LIVER OR KIDNEY, MICROSOMES, Method: PREINCUBATION inactive; negative | [2] inactive; negative | Test System: AMES SALMONELLA TYPHIMURIUM, Strain/Indicator: TA100, Metabolic Activation: RAT, LIVER OR KIDNEY, MICROSOMES, Method: PREINCUBATION inactive; negative | [3] inactive; negative | Test System: AMES SALMONELLA TYPHIMURIUM, Strain/Indicator: TA102, Metabolic Activation: RAT, LIVER OR KIDNEY, MICROSOMES, Method: PREINCUBATION inactive; negative | Test System: AMES SALMONELLA TYPHIMURIUM, Strain/Indicator: TA2638, Metabolic Activation: NONE, Method: PREINCUBATION inactive; negative | Test System: AMES SALMONELLA TYPHIMURIUM, Strain/Indicator: TA2638, Metabolic Activation: RAT, LIVER OR KIDNEY, MICROSOMES, Method: PREINCUBATION inactive; negative

CC(=O)N(OC(=O)c1ccccc1)c1ccc2c(c1)Cc1ccccc1-2
active: [4] active; positive | Test System: AMES SALMONELLA TYPHIMURIUM, Strain/Indicator: TA98, Metabolic Activation: RAT, LIVER, S-9, AROCLOR 1254, Method: STANDARD PLATE active; positive

Nc1c(Cl)cc([N+](=O)[O-])cc1[N+](=O)[O-]
active: End Point: IN VITRO CHROMOSOMAL ABERRATIONS, Test System: CHL CELLS, Metabolic Activation: RAT, LIVER, S-9, SODIUM PHENOBARBITAL AND 5,6-BENZOFLAVONE active; positive (structural changes); authors report equivocal results for ploidy chang | [1] active; positive | Test System: AMES SALMONELLA TYPHIMURIUM, Strain/Indicator: TA98, Metabolic Activation: RAT, LIVER, S-9, KANECHLOR 500, Method: PREINCUBATION active; positive | Test System: AMES SALMONELLA TYPHIMURIUM, Strain/Indicator: TA98, Metabolic Activation: RAT, LIVER, S-9, PHENOBARBITAL AND BETA-NAPHTHOFLAVONE, Method: PREINCUBATION active; positive | [2] active; positive | Test System: AMES SALMONELLA TYPHIMURIUM, Strain/Indicator: TA100, Metabolic Activation: RAT, LIVER, S-9, KANECHLOR 500, Method: PREINCUBATION active; positive | Test System: AMES SALMONELLA TYPHIMURIUM, Strain/Indicator: TA100, Metabolic Activation: RAT, LIVER, S-9, PHENOBARBITAL AND BETA-NAPHTHOFLAVONE, Method: PREINCUBATION active; positive

O=C1C(Cl)=C(Cl)C(=O)C(Cl)=C1Cl
inactive: [1] inactive; negative | [2] inactive; negative | [3] inactive; negative | Test System: AMES SALMONELLA TYPHIMURIUM, Strain/Indicator: TA102, Metabolic Activation: RAT, LIVER, S-9, PHENOBARBITAL AND 5,6-BENZOFLAVONE, Method: PREINCUBATION inactive; negative | Test System: AMES SALMONELLA TYPHIMURIUM, Strain/Indicator: TA2637, Metabolic Activation: NONE, Method: PREINCUBATION inactive; negative | Test System: AMES SALMONELLA TYPHIMURIUM, Strain/Indicator: TA2637, Metabolic Activation: RAT, LIVER, S-9, PHENOBARBITAL AND 5,6-BENZOFLAVONE, Method: PREINCUBATION inactive; negative | Test System: Ames Salmonella typhimurium, Strain/Indicator: TA98, Metabolic Activation: None, Method: Preincubation inactive; negative | Test System: Ames Salmonella typhimurium, Strain/Indicator: TA98, Metabolic Activation: Rat, Liver, S9, Sodium phenobarbital and 5,6-benzoflavone (10%), Method: Preincubation inactive; negative | Test System: Ames Salmonella typhimurium, Strain/Indicator: TA100, Metabolic Activation: None, Method: Preincubation inactive; negative | Test System: Ames Salmonella typhimurium, Strain/Indicator: TA1535, Metabolic Activation: None, Method: Preincubation inactive; negative | Test System: Ames Salmonella typhimurium, Strain/Indicator: TA1535, Metabolic Activation: Rat, Liver, S9, Sodium phenobarbital and 5,6-benzoflavone (10%), Method: Preincubation inactive; negative | Test System: Ames Salmonella typhimurium, Strain/Indicator: TA1537, Metabolic Activation: None, Method: Preincubation inactive; negative | Test System: Ames Salmonella typhimurium, Strain/Indicator: TA1537, Metabolic Activation: Rat, Liver, S9, Sodium phenobarbital and 5,6-benzoflavone (10%), Method: Preincubation inactive; negative | Test System: E. coli, Strain/Indicator: WP2uvrA/pKM101, Metabolic Activation: None, Method: Preincubation inactive; negative | Test System: E. coli, Strain/Indicator: WP2uvrA/pKM101, Metabolic Activation: Rat, Liver, S9, Sodium Phenobarbital and 5,6-benzoflavone, Method: Preincubation inactive; negative
active: End Point: In vitro chromosomal aberrations, Test System: Chinese hamster lung (CHL/IU) cells, Metabolic Activation: Rat, Liver, S9, Phenobarbital and 5,6-benzoflavone active; positive (structural changes and ploidy) | Test System: AMES SALMONELLA TYPHIMURIUM, Strain/Indicator: TA100, Metabolic Activation: RAT, LIVER, S-9, PHENOBARBITAL AND 5,6-BENZOFLAVONE, Method: PREINCUBATION active; positive | Test System: Ames Salmonella typhimurium, Strain/Indicator: TA100, Metabolic Activation: Rat, Liver, S9, Sodium phenobarbital and 5,6-benzoflavone (10%), Method: Preincubation active; positive

Nc1ccccc1C(=O)O
inactive: Test System: AMES SALMONELLA TYPHIMURIUM, Strain/Indicator: TA98, Metabolic Activation: HAMSTER, LIVER, S-9, AROCLOR 1254 (10%), Method: PREINCUBATION inactive; negative | [1] inactive; negative | Test System: AMES SALMONELLA TYPHIMURIUM, Strain/Indicator: TA98, Metabolic Activation: RAT, LIVER, S-9, AROCLOR 1254 (10%), Method: PREINCUBATION inactive; negative | Test System: AMES SALMONELLA TYPHIMURIUM, Strain/Indicator: TA100, Metabolic Activation: HAMSTER, LIVER, S-9, AROCLOR 1254 (10%), Method: PREINCUBATION inactive; negative | [2] inactive; negative | Test System: AMES SALMONELLA TYPHIMURIUM, Strain/Indicator: TA100, Metabolic Activation: RAT, LIVER, S-9, AROCLOR 1254 (10%), Method: PREINCUBATION inactive; negative | Test System: AMES SALMONELLA TYPHIMURIUM, Strain/Indicator: TA1535, Metabolic Activation: HAMSTER, LIVER, S-9, AROCLOR 1254 (10%), Method: PREINCUBATION inactive; negative | Test System: AMES SALMONELLA TYPHIMURIUM, Strain/Indicator: TA1535, Metabolic Activation: NONE, Method: PREINCUBATION inactive; negative | Test System: AMES SALMONELLA TYPHIMURIUM, Strain/Indicator: TA1535, Metabolic Activation: RAT, LIVER, S-9, AROCLOR 1254 (10%), Method: PREINCUBATION inactive; negative | Test System: AMES SALMONELLA TYPHIMURIUM, Strain/Indicator: TA1537, Metabolic Activation: HAMSTER, LIVER, S-9, AROCLOR 1254 (10%), Method: PREINCUBATION inactive; negative | Test System: AMES SALMONELLA TYPHIMURIUM, Strain/Indicator: TA1537, Metabolic Activation: NONE, Method: PREINCUBATION inactive; negative | Test System: AMES SALMONELLA TYPHIMURIUM, Strain/Indicator: TA1537, Metabolic Activation: RAT, LIVER, S-9, AROCLOR 1254 (10%), Method: PREINCUBATION inactive; negative | Test System: CHINESE HAMSTER OVARY, Strain/Indicator: CHO-K1-BH4 (HGPRT)/6-THIOGUANINE, Metabolic Activation: NONE inactive; negative | Test System: CHINESE HAMSTER OVARY, Strain/Indicator: CHO-K1-BH4 (HGPRT)/6-THIOGUANINE, Metabolic Activation: S-9 inactive; negative | Test System: Mouse lymphoma, Strain/Indicator: L5178Y (tk+/tk-), Metabolic Activation: None, Method: Suspension/plate inactive; negative
active: Test System: MOUSE LYMPHOMA, Strain/Indicator: L5178Y (TK+/TK-), Metabolic Activation: RAT, LIVER, S-9, AROCLOR 1254, Method: SUSPENSION/PLATE active; positive | Test System: Mouse lymphoma, Strain/Indicator: L5178Y (tk+/tk-), Metabolic Activation: Rat, Liver, S-9, Aroclor 1254, Method: Suspension/plate active; positive

CCc1cc(-c2ccccc2)ccc1N
inactive: [4] inactive; negative
active: Test System: AMES SALMONELLA TYPHIMURIUM, Strain/Indicator: TA98, Metabolic Activation: RAT LIVER S-9, AROCLOR, Method: STANDARD PLATE active; positive | Test System: AMES SALMONELLA TYPHIMURIUM, Strain/Indicator: TA100, Metabolic Activation: NONE, Method: STANDARD PLATE active; positive | Test System: AMES SALMONELLA TYPHIMURIUM, Strain/Indicator: TA100, Metabolic Activation: RAT LIVER S-9, AROCLOR, Method: STANDARD PLATE active; positive
